Test results reported in patent US11001557B2 (priority 2017, dated 2021).
Where two headings read alike, the source gives them in different places.

Key:
[1] = tested on: Vero cells; details: African green monkey
[2] = tested on: SFTSV; assay: microbe, parasite or virus in culture; type: cell-based, severe fever with thrombocytopenia syndrome virus (SFTSV); details: for EC50: Severe fever with thrombocytopenia syndrome virus, Vero, 72 h
[3] = in vitro; details: African green monkey
[4] = tested on: SFTSV; details: cited from earlier work
[5] = read-out: EC50: 50% effective concentration (concentration of a drug suppressing SFTSV proliferation by 50%)

Row | Structure (SMILES) | CC50 [1] | EC50 [2, 5] | CC50 [3] | other results
1 | CCN(CC)Cc1cc(Nc2ccnc3cc(Cl)ccc23)ccc1O [Compound 1, Amodiaquine, reference compound] | > 100 µM | 19.1 ± 5.1 µM |  | anti-SFTSV effect (in words) [2]: have an anti-SFTSV effect
2 | CCN(CC)Cc1cc(Nc2ccnc3cc(F)ccc23)ccc1O [Compound 2, 4-(7-fluoroquinolin-4-ylamino)-2-diethylaminomethylphenol] | > 100 µM | 36.6 ± 9.3 µM |  | 
3 | CCN(CC)Cc1cc(Nc2ccnc3cc(Br)ccc23)ccc1O [Compound 3, 4-(7-bromoquinolin-4-ylamino)-2-diethylaminomethylphenol] | > 100 µM | 31.1 ± 16.8 µM |  | melting point: 194.3 to 195.8 °C
4 | CCN(CC)Cc1cc(Nc2ccnc3cc(I)ccc23)ccc1O [Compound 4, 4-(7-iodoquinolin-4-ylamino)-2-diethylaminomethylphenol] | > 100 µM | 15.6 ± 4.9 µM |  | melting point: 189.7 to 190.4 °C
5 | Oc1ccc(Nc2ccnc3cc(Cl)ccc23)cc1CN1CCCC1 [Compound 5, 4-(7-chloroquinolin-4-ylamino)-2-(1-pyrrolidinylmethyl)phenol] |  | 14.6 µM | 41.1 µM | 
6 | CCCN(CCC)Cc1cc(Nc2ccnc3cc(Cl)ccc23)ccc1O [Compound 6, 4-(7-chloroquinolin-4-ylamino)-2-dipropylaminomethylphenol] |  | 58.7 µM | > 100 µM | melting point: 163.2 to 164.3 °C
7 | CCCCN(C)Cc1cc(Nc2ccnc3cc(I)ccc23)ccc1O [Compound 12, 4-(7-iodoquinolin-4-ylamino)-2-butylmethylaminomethylphenol] |  |  | > 50 µM | EC50 [2]: 6.2 µM
8 | CCCCCN(C)Cc1cc(Nc2ccnc3cc(I)ccc23)ccc1O [Compound 13, 4-(7-iodoquinolin-4-ylamino)-2-methylpentylaminomethylphenol] |  |  | > 50 µM | EC50 [2]: 3.4 µM
9 | CCCCCCN(C)Cc1cc(Nc2ccnc3cc(I)ccc23)ccc1O [Compound 14, 4-(7-iodoquinolin-4-ylamino)-2-hexylmethylaminomethylphenol] |  |  | > 50 µM | EC50 [2]: 8.7 µM
10 | NC(=O)c1nc(F)c[nH]c1=O [favipiravir, reference compound] |  |  |  | anti-SFTSV effect already reported [4]: already reported to have an anti-SFTSV effect; anti-SFTSV effect (in words) [2]: have an anti-SFTSV effect
11 | NC(=O)c1ncn([C@@H]2O[C@H](CO)[C@@H](O)[C@H]2O)n1 [ribavirin, reference compound] |  |  |  | anti-SFTSV effect already reported [4]: already reported to have an anti-SFTSV effect; anti-SFTSV effect (in words) [2]: have an anti-SFTSV effect
